From US20230084144A1, “THERAPEUTIC COMBINATIONS OF DRUGS AND METHODS OF USING THEM” (ConSynance Therapeutics, Inc., priority 2020, published 2023)
Where “and” joins values, the source holds several entries; their conditions need not be identical. Identical values can stand only once.

Columns and labels:
[1] = target: T1, Transporter, Dopamine (DAT) (Homo sapiens, UniProt Q01959); test: Radioligand binding, Transporter, Dopamine (DAT) (Eurofin Discovery 220320); settings: 100 nM compound
T1 construct: host or cells: CHO-S cells
T1 sequence (Q01959 whole entry): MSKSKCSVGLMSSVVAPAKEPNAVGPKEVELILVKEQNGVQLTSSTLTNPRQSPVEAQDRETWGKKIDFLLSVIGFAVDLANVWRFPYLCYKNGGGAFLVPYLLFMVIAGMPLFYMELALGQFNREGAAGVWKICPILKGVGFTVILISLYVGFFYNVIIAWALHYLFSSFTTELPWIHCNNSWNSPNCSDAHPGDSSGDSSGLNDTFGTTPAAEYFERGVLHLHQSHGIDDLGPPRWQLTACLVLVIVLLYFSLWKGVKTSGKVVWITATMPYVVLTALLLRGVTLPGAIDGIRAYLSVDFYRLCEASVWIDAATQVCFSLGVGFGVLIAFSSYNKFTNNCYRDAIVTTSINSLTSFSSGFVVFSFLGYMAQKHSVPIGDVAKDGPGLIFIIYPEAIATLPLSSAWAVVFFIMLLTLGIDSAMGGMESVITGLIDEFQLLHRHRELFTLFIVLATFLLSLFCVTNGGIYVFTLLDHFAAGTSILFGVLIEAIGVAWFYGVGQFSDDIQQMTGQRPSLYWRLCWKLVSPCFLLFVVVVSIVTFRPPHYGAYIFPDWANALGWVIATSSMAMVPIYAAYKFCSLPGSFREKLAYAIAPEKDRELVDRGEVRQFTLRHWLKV

[2] = target: T2, Transporter, Norepinephrine (NET) (Homo sapiens, UniProt P23975); test: Radioligand binding, Transporter, Norepinephrine (NET) (Eurofin Discovery 204410); settings: 100 nM compound
T2 construct: host or cells: MDCK cells
T2 sequence (P23975 whole entry): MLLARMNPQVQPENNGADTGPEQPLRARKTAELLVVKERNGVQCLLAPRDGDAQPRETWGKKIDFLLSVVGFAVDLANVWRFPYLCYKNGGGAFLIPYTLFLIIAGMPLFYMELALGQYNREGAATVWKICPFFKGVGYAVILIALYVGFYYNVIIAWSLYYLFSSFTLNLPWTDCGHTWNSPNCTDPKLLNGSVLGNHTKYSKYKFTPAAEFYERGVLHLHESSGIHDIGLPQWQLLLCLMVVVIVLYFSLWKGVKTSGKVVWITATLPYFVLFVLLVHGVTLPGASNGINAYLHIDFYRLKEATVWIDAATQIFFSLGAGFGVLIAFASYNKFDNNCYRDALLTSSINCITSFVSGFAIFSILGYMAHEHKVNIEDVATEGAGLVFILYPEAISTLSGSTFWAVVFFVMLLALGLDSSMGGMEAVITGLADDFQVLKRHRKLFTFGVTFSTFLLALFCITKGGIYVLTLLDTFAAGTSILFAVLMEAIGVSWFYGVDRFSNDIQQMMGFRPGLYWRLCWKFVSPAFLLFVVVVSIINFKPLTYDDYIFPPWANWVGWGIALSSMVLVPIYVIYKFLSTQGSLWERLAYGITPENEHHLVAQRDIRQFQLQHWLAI

[3] = target: T3, serotonin transporters (SERT) (Homo sapiens, UniProt P31645); test: PET receptor occupancy at SERT, tracer 11C-MADAM; type: in vivo; settings: for SERT RO%: healthy males
T3 construct: from tissue; host or cells: brain (striatum, thalamus) of healthy male volunteers, in vivo PET
T3 sequence (P31645 whole entry): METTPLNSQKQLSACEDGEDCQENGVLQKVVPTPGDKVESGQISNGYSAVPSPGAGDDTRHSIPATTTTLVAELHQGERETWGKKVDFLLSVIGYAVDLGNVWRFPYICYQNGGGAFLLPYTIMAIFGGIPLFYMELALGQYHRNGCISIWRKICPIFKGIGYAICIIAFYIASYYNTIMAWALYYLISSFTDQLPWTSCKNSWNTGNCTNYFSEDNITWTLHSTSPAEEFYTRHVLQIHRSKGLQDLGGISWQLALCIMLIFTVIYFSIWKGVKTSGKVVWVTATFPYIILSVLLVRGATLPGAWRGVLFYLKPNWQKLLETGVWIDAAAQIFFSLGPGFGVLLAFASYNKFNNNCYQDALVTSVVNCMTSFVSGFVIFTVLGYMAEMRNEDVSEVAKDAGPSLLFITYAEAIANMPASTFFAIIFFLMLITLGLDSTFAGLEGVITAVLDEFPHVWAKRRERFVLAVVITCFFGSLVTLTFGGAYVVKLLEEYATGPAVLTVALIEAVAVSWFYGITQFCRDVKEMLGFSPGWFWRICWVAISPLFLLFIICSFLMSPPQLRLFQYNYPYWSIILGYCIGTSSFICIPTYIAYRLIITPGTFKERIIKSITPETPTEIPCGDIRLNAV
From the text: (§1) The PET study was a part of a strategy in previous clinical development of the compound of formula I to evaluate in healthy male volunteers with respect to safety, tolerability and pharmacokinetics as well as DAT and SERT occupancy.
(§2) The relationship between plasma the compound of formula I concentration and SERT occupancies, using the individual values, is presented in FIG. 8 and FIG. 9. The numeric values for the individual SERT and […] occupancy and the corresponding plasma concentrations are tabulated in Example 12.
(§3) Striatal receptor occupancy at dopamine transporters (DAT) and serotonin transporters (SERT) with plasma concentrations of Formula I at the midpoint time of the post dosing PET (positron emission tomography) scans (T=4 and 24) after once-a-day multiple doses of 3-60 mg and 10-60 mg for SERT and DAT healthy male cohorts, respectively (Tables below, RO stands for receptor occupancy). Post dosing PET scans were conducted at day 10 (4 h post last dose) and day 14 (24 h post last dose) assuming steady state conditions, using the specific DAT and SERT tracers ^11 C-PE2I and ^11 C-MADAM, respectively. For 45 mg and 60 mg cohorts, there was titration by administration of 30 mg for 3 days and then from day 4 the specified dose. Representative reports on using these two tracers are Learned-Coughlin SM et al, Biol Psychiatry.2003, 54(8):800-5; Jucaite A et al, Eur J Nucl Med Mol Imaging. 2006, 33(6):657-68; and Lundberg J et al, Int J Neuropsychopharmacol. 2007, 10(6):777-85.

[4] = target: T4, dopamine transporters (DAT) (Homo sapiens, UniProt Q01959); test: PET striatal receptor occupancy at DAT, tracer 11C-PE2I; type: in vivo; settings: following multiple doses of 60 mg, PET study in healthy males
T4 construct: from tissue; host or cells: striatum of healthy male volunteers, in vivo PET
T4 sequence (Q01959 whole entry): as the sequence (Q01959 whole entry) above
From the text: as §1, §2
as §3, with “Representative reports on using these two tracers are Learned-Coughlin SM et al, Biol Psychiatry.2003, 54(8):800-5; Jucaite A et al, Eur J Nucl Med Mol Imaging. 2006, 33(6):657-68; and Lundberg J et al, Int J Neuropsychopharmacol. 2007, 10(6):777-85.” left out

[5] = Plasma concentrations at midpoint time of post dosing PET scans; type: in vivo, human; settings: healthy males
Protocol: (§4) A LC-MS/MS method was developed and validated for the quantitation of Formula I in 0.250 mL of human EDTA plasma in a total of 7 runs, out of which 1 run was rejected. The method utilized stable labeled Formula I as an internal standard. After the addition of the internal standard (equivalent to 285.4 ng/mL in human EDTA plasma) and 0.250 mL of each quality control (QC) sample and calibration standard, 0.525 mL of methyl t-butyl ether (MTBE) was added to the 96-well sample tubes. The organic layer was removed and evaporated to dryness using a liquid-liquid extraction (LLE). The residue was reconstituted and injected into the LC-MS/MS system. Chromatographic separation was achieved through gradient elution on an Acquity UPLC, BEH Shield RP18™, 50 × 2.1 mm, 1.7 µm particle size column. The mobile phase contained water, acetonitrile, ammonium formate, and formic acid. Detection was accomplished using a Sciex API 4000 tandem mass spectrometer in positive ion electrospray SRM mode. The standard curves, which ranged from 1.00 to 1000 ng/mL for Formula I, were fitted to a ⅟x2 weighted linear regression model. The intra-assay precisions, based on four levels of analytical QCs (low, mid, GM, and high), were within 4.2% CV and inter-assay precisions were within 7.2% CV for the analyte. The assay accuracy, expressed as %DEV, was within 6.4% of the nominal concentration values for the analyte. […] The LLOQ response ratio, when compared to the QC0 response ratio, was ≥ 5 in all matrix lots. The analyte was stable in human EDTA plasma for at least 24 h at room temperature, for at least 14 days at -20° C., and following at least 3 freeze- thaw cycles. The processed samples were stable for 72 hours (h) at room temperature.
as §3

[6] = 14-day once-a-day oral multiple ascending dose PK study; type: in vivo, human; set-up: AUC: unit not given here
From the text: Tabulated, day-14 PK data (Cmax, Ctrough and AUC) for healthy humans in a 14-day, once-a-day oral dosing, multiple ascending dose study of compound of Formula I.

[7] = Stability in human EDTA plasma (LC-MS/MS validation); type: in vitro ADME
Protocol: as §4

[8] = Population PK model (3-compartment) on human PK data; settings: healthy volunteers, 3-compartment population PK model
From the text: In alternative embodiments, provided are pharmacokinetic modeling and simulation methods for Formula I, comprising using human PK data, as described sequentially in FIG. 25 to FIG. 29. A 3-compartment model best described the human PK data. Between-patient variability in healthy volunteers were 20.2%.

SMILES: Clc1ccc(C2CNCc3cc(-c4ccc5ncnn5c4)ccc32)cc1Cl (stereo not drawn) [Formula I, 7-([1,2,4]triazolo[1,5-a]pyridin-6-yl)-4-(3,4-dichlorophenyl)-1,2,3,4-tetrahydroisoquinoline]
- inhibition at 0.1 µM [1]: 92%
- inhibition at 0.1 µM [2]: 84%
- SERT RO% ([3]; 10 mg once-a-day, day 10, 4 h post last dose): 53% and 52%
- SERT RO% ([3]; 10 mg once-a-day, day 14, 24 h post last dose): 47% and 48% and 51%
- SERT RO% ([3]; 30 mg once-a-day, day 10, 4 h post last dose): 71% and 72% and 74%
- SERT RO% ([3]; 30 mg once-a-day, day 14, 24 h post last dose): 69% and 66% and 67%
- SERT RO% ([3]; 45 mg once-a-day, day 10, 4 h post last dose): 73% and 74% and 75%
- SERT RO% ([3]; 45 mg once-a-day, day 14, 24 h post last dose): 73% and 75% and 78%
- SERT RO% ([3]; 60 mg once-a-day, day 10, 4 h post last dose): 70% and 61% and 76%
- SERT RO% ([3]; 60 mg once-a-day, day 14, 24 h post last dose): 76% and 72% and 77%
- SERT occupancy ([3]; multiple doses of 30-60 mg at steady state, healthy male volunteers): 65-75%
- DAT occupancies [4]: ≤ 60%
- DAT occupancies ([4]; listed as formula I): up to 60%
- Formula I plasma concentration ([5]; DAT cohort, 10 mg once-a-day, day 10, 4 h): 214 ng/mL and 173 ng/mL
- Formula I plasma concentration ([5]; DAT cohort, 10 mg once-a-day, day 14, 24 h): 149 ng/mL and 147 ng/mL
- Formula I plasma concentration ([5]; DAT cohort, 45 mg once-a-day, day 10, 4 h): 924 ng/mL and 905 ng/mL
- Formula I plasma concentration ([5]; DAT cohort, 45 mg once-a-day, day 14, 24 h): 668 ng/mL and 673 ng/mL
- Formula I plasma concentration ([5]; DAT cohort, 60 mg once-a-day, day 10, 4 h): 1263 ng/mL
- Formula I plasma concentration ([5]; DAT cohort, 60 mg once-a-day, day 14, 24 h): 991 ng/mL
- Formula I plasma concentration ([5]; SERT cohort, 3 mg once-a-day, day 10, 4 h): 64 ng/mL and 63 ng/mL
- Formula I plasma concentration ([5]; SERT cohort, 3 mg once-a-day, day 14, 24 h): 45 ng/mL and 42 ng/mL
- Formula I plasma concentration ([5]; SERT cohort, 10 mg once-a-day, day 10, 4 h): 184 ng/mL and 212 ng/mL
- Formula I plasma concentration ([5]; SERT cohort, 10 mg once-a-day, day 14, 24 h): 129 ng/mL and 156 ng/mL
- Formula I plasma concentration ([5]; SERT cohort, 30 mg once-a-day, day 10, 4 h): 847 ng/mL and 667 ng/mL
- Formula I plasma concentration ([5]; SERT cohort, 30 mg once-a-day, day 14, 24 h): 434 ng/mL and 567 ng/mL
- Formula I plasma concentration ([5]; SERT cohort, 45 mg once-a-day, day 10, 4 h): 1191 ng/mL and 1105 ng/mL
- Formula I plasma concentration ([5]; SERT cohort, 45 mg once-a-day, day 14, 24 h): 904 ng/mL and 895 ng/mL
- Formula I plasma concentration (ng/ml), Cmax ([6]; healthy person alpha, 3 mg daily oral, day 14, Cmax (blood draw 1-3 h)): 64 ng/mL and 67 ng/mL and 63 ng/mL and 77 ng/mL and 74 ng/mL
- Formula I plasma concentration ([6]; healthy person alpha, 3 mg daily oral, day 14, blood draw 0 h): 36 ng/mL and 40 ng/mL and 31 ng/mL and 51 ng/mL and 44 ng/mL
- Formula I plasma concentration ([6]; healthy person alpha, 3 mg daily oral, day 14, blood draw about 23-24 h): 38 ng/mL and 42 ng/mL and 34 ng/mL and 48 ng/mL and 50 ng/mL
- AUC ([6]; healthy person alpha, 3 mg daily oral, day 14, printed in row of 23-24 h blood draw): 369 and 414 and 338 and 525 and 439 and 374
- Formula I plasma concentration (ng/ml), Cmax ([6]; healthy person alpha, 10 mg daily oral, day 14, Cmax (blood draw 1-3 h)): 249 ng/mL and 243 ng/mL and 285 ng/mL and 259 ng/mL and 242 ng/mL
- Formula I plasma concentration ([6]; healthy person alpha, 10 mg daily oral, day 14, blood draw 0 h): 127 ng/mL and 134 ng/mL and 183 ng/mL and 155 ng/mL and 147 ng/mL
- Formula I plasma concentration ([6]; healthy person alpha, 10 mg daily oral, day 14, blood draw about 23-24 h): 130 ng/mL and 140 ng/mL and 138 ng/mL and 178 ng/mL and 160 ng/mL and 162 ng/mL
- AUC ([6]; healthy person alpha, 10 mg daily oral, day 14, printed in row of 23-24 h blood draw): 1263 and 1447 and 1302 and 1925 and 1884 and 1985
- Formula I plasma concentration (ng/ml), Cmax ([6]; healthy person alpha, 45 mg daily oral, day 14, Cmax (blood draw 1-2 h)): 1570 ng/mL and 1394 ng/mL and 1579 ng/mL and 1348 ng/mL and 1808 ng/mL
- Formula I plasma concentration ([6]; healthy person alpha, 45 mg daily oral, day 14, blood draw 0 h): 866 ng/mL and 695 ng/mL and 862 ng/mL and 791 ng/mL and 957 ng/mL
- Formula I plasma concentration ([6]; healthy person alpha, 45 mg daily oral, day 14, blood draw 23 h): 890 ng/mL and 693 ng/mL and 941 ng/mL and 779 ng/mL and 924 ng/mL
- AUC ([6]; healthy person alpha, 45 mg daily oral, day 14, printed in row of 23 h blood draw): 6276 and 8418 and 6879 and 8712 and 8687 and 9833
- Formula I plasma concentration (ng/ml), Cmax ([6]; healthy person beta, 45 mg daily oral, day 14, Cmax (blood draw 1-3 h)): 1465 ng/mL and 1198 ng/mL and 1313 ng/mL and 1713 ng/mL and 2112 ng/mL
- Formula I plasma concentration ([6]; healthy person beta, 45 mg daily oral, day 14, blood draw 0 h): 832 ng/mL and 732 ng/mL and 714 ng/mL and 973 ng/mL and 1274 ng/mL
- Formula I plasma concentration ([6]; healthy person beta, 45 mg daily oral, day 14, blood draw about 24 h): 929 ng/mL and 649 ng/mL and 749 ng/mL and 1033 ng/mL and 1249 ng/mL
- AUC ([6]; healthy person beta, 45 mg daily oral, day 14, printed in row of 24 h blood draw): 10113 and 9936 and 6959 and 8066 and 11276 and 12977
- stable in human EDTA plasma following freeze-thaw cycles [7]: at least 3 freeze- thaw cycles
- stable in human EDTA plasma at -20° C. ([7]; -20° C.): at least 14 days
- processed samples stable at room temperature ([7]; processed (extracted) samples, room temperature): 72 h
- stable in human EDTA plasma at room temperature ([7]; room temperature): at least 24 h
- Between-patient variability [8]: 20.2%
